The results in this text go back to patent publication US20080280953A1, “Agents Used for the Treatment of Seeds” (Bayer Cropscience AG, priority 2004, published 2008).

The subject of assay [1] is white fly (Bemisia tabaci, resistant strain). Kind of assay: Bemisia tabaci test (resistant strain), cotton leaf dip. In kind it is in vivo. The note with it: 1000 ppm. As for the experimental part:
To prepare a suitable active compound preparation 1 part by weight of the active compound is mixed with the given amount of solvent and emulsifier and the concentrate is diluted to the desired concentration with water containing emulsifier.
Leaf sections of the cotton plant (Gossypium hirsutum) are treated by dipping in the active compound preparation at the desired concentration and after drying of the coating are infected with adults of the white fly (Bemisia tabaci, resistant strain).
After the desired time the death rate in % is determined. Here 100% means that all animals were killed; 0% means that no animals were killed.

Assay [2] has as its system caterpillars of the fall army worm (Spodoptera frugiperda). Description: Spodoptera frugiperda test, treated soil (Example A1). In kind it is in vivo. The note with it: 4 ppm in soil, cotton plant. As for the experimental part:
To prepare a suitable active compound preparation 1 part by weight of the active compound is mixed with the given amount of solvent and emulsifier and the concentrate is diluted to the desired concentration with water.
The active compound preparation is mixed with earth. The concentration given relates to the amount of active compound per unit volume soil (mg/l=ppm). The treated earth is filled into pots and planted with a cotton plant (Gossypium hirsutum). After a week infection is carried out with caterpillars of the fall army worm (Spodoptera frugiperda).
After the desired time the activity in % is determined. Here 100% means that no eating damage is visible, 0% means that eating damage on the treated plants corresponds to that of the controls.

In the case of `CN(Cc1ccc(Cl)nc1)C1=CC(=O)OC1` [Compound 84], the “Death rate in % after 3 d” value in assay [1] was 78%. Further, the “activity (eating damage) after 7 days” value in assay [2] was 98%.
